The test system of assay [1] is HCT116 cells. Briefly: SA-β-Gal senescence assay in HCT116 cells. It is filed as cell-based, human. Particulars: 20 μM Kaempferol, 24 hours. The method, then:
FIG. 4. Cellular cannibalism leads to senescence. (A,B) Effects of cellular cannibalism on cell proliferation. After cell sorting, cell proliferation of TP53 or Δ133TP53 knocked down and TP53 knocked out single or cannibal cells were performed during 6 days. (C-H) Effects of cellular cannibalism on senescence induction. Cannibal cells mediated by TP53 knockout or Δ133TP53 knockdown were examined in EdU incorporation assay (C,D), in DNA damage response (E,F) and in SA-β-Gal assay (G,H). (C) Determination of EdU incorporation on cannibal cells induced by Δ133TP53 knockdown, or TP53 knockout. […] The number of EdU positive single or cannibal cells per total number of cells examined (at least 300 per well) was recorded. […] (F) Quantification of DNA damage foci in single and cannibal cells after TP53 or Δ133TP53 inactivation. The percentage of γ-H2AX^+ cells or p53BP1^+ cells were determined by confocal microscopy. […] (I) p21^WAF1 expression during coculture of Tp53^+/+ or TP53^−/− cells, P21^WAF1 expression was determined by immunoblot. […] (K) Quantification of p21^WAF1 expression in single and cannibal cells after TP53 or Δ133TP53 inactivation. The percentage of […]21WAF^+ cells in cannibal cells was determined by confocal microscopy. […] P21^WAF1 expression was determined by immunoblot. […] Quantification of SA-β Gal positive cells were realized as described above (n=3; means±SEM; *P <0.01). […]

For assay [2], the system named is human primary keratinocytes (HEKn). Kind of assay: SA-β-Gal senescence assay in human primary keratinocytes. It is filed as cell-based. Particulars: HEKn after fifth passage; 20 μM Kaempferol, 24 hours. The method, then: FIG. 12. Identification of entescence as a non-cell autonomous senescence. (A) Effects of P2Y2 inhibition on SA-β Gal activity of human primary keratinocytes. After the fifth passages, human primary keratinocytes were cultured during 24 hours in presence or in absence of 20 μM of P2Y2 inhibitor Kaempferol. The number of SA-β Gal positive single or cannibal cells per total number of cells examined (at least 300 per well) was recorded and frequencies of SA-β Gal positive were determined. Error bars represent means±SEM (n=3; *p <0.01). (B) Effects of P2Y2 inhibition on SA-β Gal activity detected after g-irradiation or mithoxantron treatment. […] Then as described above frequencies of SA-β Gal positive were determined (means±SEM; n=3; *p <0.01). […] As previously described, the number of SA-β Gal positive single or cannibal cells per total number of cells examined (at least 300 per well) was recorded (means±SEM; n=3; *p <0.01). […] P21WAF1 expression was also analyzed using antibody against p21^WAF1 (green). […] (F-H) Effects of P2Y2 depletion on DNA damage foci formation, p21^WAF1 expression and SA-β Gal activity detected after Δ133p53. After P2Y2 depletion, the percentage of Δ133p53 depleted cells showing positivity for γ-I-H2AX^+ or p21^WAF1 expression were determined by confocal microscopy (G,H) and analyzed for p Gal activity (Means±SEM; n=3; *P <0.01). […]

`O=c1c(O)c(-c2ccc(O)cc2)oc2cc(O)cc(O)c12` [kaempferol]: the “senescence (frequency of senescent, SA-β-Gal-positive cannibal cells) after treatment with IR or with MTX” value in assay [1] is given as “strongly reduced senescence”. Further, the “senescence (frequency of senescent, SA-β-Gal-positive cannibal cells) during replicative stress” value in assay [2] was “strongly reduced senescence”.
